# Data from US4283409A, “Imidazolone derivatives” (Pfizer Inc., priority 1979, dated 1981).
# How the values were obtained:
# [1] = test system: sorbitol accumulation in the sciatic nerve of streptozotocinized (i.e., diabetic) rats; assay: sorbitol accumulation in the sciatic nerve of streptozotocinized (diabetic) rats; assay type: in vivo
# Description: (§1) The activity of the compounds of the present invention, as agents for the control of chronic diabetic complications, is determined by their ability to successfully pass one or more of the following standard biologically and/or pharmacological tests, viz., (1) measuring their ability to reduce or inhibit sorbitol accumulation in the sciatic nerve of acutely streptozotocinized (i.e., diabetic) rats; (2) measuring their ability to reverse already-elevated sorbitol levels in the sciatic nerve and lens of chronic streptozotocin-induced diabetic rats; (3) measuring their ability to prevent or inhibit galactitol formation in the lens of acutely galactosemic rats, and (4) measuring their ability to delay cataract formation and reduce the severity of lens opacities in chronic galactosemic rats.
# The final product of Example 1, viz., 3',4'-dihydro-spiro-[imidazolidine-4,1'(2'H)naphthalene]-5-one, was tested for its ability to reduce or inhibit sorbitol accumulation in the sciatic nerve of streptozotocinized (i.e., diabetic rats) by the procedure essentially described in U.S. Pat. No. 3,821,383. In the present study, the amount of sorbitol accumulation in the sciatic nerves was measured 27 hours after the induction of diabetes. The compound was then administered orally at 25 mg./kg. at intervals of 4, 8 and 24 hours after the administration of streptozotocin. The results obtained in this manner are clearly presented in terms of the percent inhibition (%) afforded by the test compound as compared to the case where no compound was administered (i.e., the control or untreated animal where sorbitol levels normally rise from approximately […]. tissue to as high as 400 mM/g. tissue in the 27-hour test period).
# [2] = test system: galactitol levels in the lens of galactosemic subjects; assay: galactitol levels in the lens of galactosemic subjects; assay type: in vivo, rats; conditions: summary statement, no dose given
# Description: as §1
smiles,measurement,setting,value
"O=C1NCNC12CCCc1ccccc12 (stereo not shown) [Example 1, 3',4'-dihydro-spiro-[imidazolidine-4,1'(2'H)naphthalene]-5-one]",percent inhibition of sorbitol accumulation in the sciatic nerve,"[1]; diabetic rats, oral 25 mg./kg. at 4, 8 and 24 hours after streptozotocin, sorbitol measured 27 hours after induction of diabetes, vs untreated control",52%
same,signs of toxic side effects,"[1]; diabetic rats, oral route, dose level of 25 mg./kg.",without showing any substantial signs of toxic side effects
same,lowering sorbitol levels in the lens and sciatic nerve of diabetic subjects,"[1]; summary statement, no dose given",remarkably effective
same,lowering galactitol levels in the lens of galactosemic subjects,[2],remarkably effective
